# Test results taken from patent publication EP0198508A1, “L-phosphoserine salts, a process for the preparation thereof and pharmaceutical compositions containing them” (LABORATORI PROPHIN S.p.A., priority 1985, dated 1986).
# Structures can show the parent of a compound that is named as a salt. Marks after values point to notes of the source that are not given here.
# Tests used:
# [1] = system: Wistar rats; experiment: Shuttle box test: acquirement of conditioned avoidance responses (CARs); format: in vivo; conditions: for CARs: mean + ES; for effect on number of conditioned responses and percentage of learners (in words): young and elderly rats, PR 156 tested only on young rats
# Protocol: (§1) Male young and elderly Wistar rats, weighing respectively […] and 580 g, were used.
# (§2) The test compounds, dissolved in physiological saline, were administered orally to young and elderly animals, at doses of 5, lO and 20 mg/kg. Phosphoserine dissolved in physiological saline was administered at equimolecular doses (1.8, 3.6 and 7.2 mg/kg). The control animals were administered with the sole vehicle. The administrations were carried out once a day during 20 days, the last administration being effected 1 hour before the tests.
# The following behavioral tests were carried out: • 1) Shuttle box test: to evaluate the acquirement of conditioned avoidance responses (CARs).
# [2] = system: Wistar rats; experiment: Dark box test: effect on memory capability; format: in vivo; conditions: for LATENCY (seconds): averages; for effect on acquirement of avoidance responses (in words): summary of Table 2, young and elderly rats
# Protocol: as §1, §2
# 2. Dark box test: to further evaluate the effect on memory capability of the animals.
# [3] = system: elderly rats; experiment: Despair test: antidepressant activity; format: in vivo, Wistar rats; conditions: for DURATION OF STILLNESS: Elderly rats, mean + SEM; for effect on stillness (in words): summary in text of Table 3, elderly rats
# Protocol: as §1, §2
# 3. Despair test: to estimate the antidepressant activity on the elderly rats.
# [4] = Young rats, 5 mg/kg orally once a day during 20 days, 5 mg/kg
# [5] = Young rats, 10 mg/kg orally once a day during 20 days, 10 mg/kg
# [6] = Elderly rats, 5 mg/kg orally once a day during 20 days
# [7] = Elderly rats, 10 mg/kg orally once a day during 20 days
# [8] = Elderly rats, 20 mg/kg orally once a day during 20 days
# [9] = Young rats, 20 mg/kg orally once a day during 20 days
# [10] = Elderly rats, 1.8 mg/kg orally once a day during 20 days
# [11] = Elderly rats, 3.6 mg/kg orally once a day during 20 days
# [12] = Elderly rats, 7.2 mg/kg orally once a day during 20 days
# [13] = Young rats, 1.8 mg/kg orally once a day during 20 days
# [14] = Young rats, 3.6 mg/kg orally once a day during 20 days
# [15] = Young rats, 7.2 mg/kg orally once a day during 20 days
smiles,measurement,setting,value
"N[C@@H](COP(=O)(O)O)C(=O)O [PR 156, L-Phosphoserine salt with L-Arginine 1:2]",LEARNERS (%),[1]; [4],100.0%
same,CARs,[1]; [4],23.4 + 1.9**
same,LEARNERS (%),[1]; [5],100.0%
same,CARs,[1]; [5],24.0 + 1.8**
same,effect on number of conditioned responses and percentage of learners (in words),[1],proved also to be effective
"N[C@@H](COP(=O)(O)O)C(=O)O [PR 157, L-Phosphoserine salt with L-Arginine and L-Lysine]",LEARNERS (%),[1]; [6],25.0%
same,CARs,[1]; [6],7.9 + 0.3*
same,LEARNERS (%),[1]; [7],50.0** %
same,CARs,[1]; [7],11.5 + 0.3*
same,LEARNERS (%),[1]; [8],50.0** %
same,CARs,[1]; [8],18.6 + 0.4*
same,LEARNERS (%),[1]; [4],50.0%
same,CARs,[1]; [4],19.4 + 0.4*
same,LEARNERS (%),[1]; [5],75.0** %
same,CARs,[1]; [5],22.2 + 1.4*
same,LEARNERS (%),[1]; [9],100.0** %
same,CARs,[1]; [9],24.4 + 1.4*
same,effect on number of conditioned responses and percentage of learners (in words),[1],"caused an increase in the number of conditioned responses as well as in the percentage of learners, both in young and elderly animals"
same,LATENCY (seconds),[2]; [6],(12) 46.0* seconds
same,LATENCY (seconds),[2]; [7],(12) 79.4* seconds
same,LATENCY (seconds),[2]; [8],(12) 82.0* seconds
same,LATENCY (seconds),"[2]; Young rats, 5 mg/kg orally once a day during 20 days",(12) 112.3* seconds
same,LATENCY (seconds),"[2]; Young rats, 10 mg/kg orally once a day during 20 days",(12) 161.5* seconds
same,LATENCY (seconds),[2]; [9],(12) 265.1* seconds
same,effect on acquirement of avoidance responses (in words),[2],caused a dose-related improvement in the acquirement of avoidance responses both in young and elderly animals
same,DURATION OF STILLNESS,[3]; 5 mg/kg orally once a day during 20 days,280.2 + 20.3*
same,DURATION OF STILLNESS,[3]; 10 mg/kg orally once a day during 20 days,263.1 + 33.4*
same,DURATION OF STILLNESS,[3]; 20 mg/kg orally once a day during 20 days,236.7 + 28.9*
same,effect on stillness (in words),[3],showed a dose-related reduction in the stillness of the elderly rats
N[C@@H](COP(=O)(O)O)C(=O)O [Phosphoserine],LEARNERS (%),[1]; [10],25.0%
same,CARs,[1]; [10],5.9 + 0.4*
same,LEARNERS (%),[1]; [11],37.5* %
same,CARs,[1]; [11],6.2 + 0.5*
same,LEARNERS (%),[1]; [12],37.5** %
same,CARs,[1]; [12],9.2 + 0.6*
same,LEARNERS (%),[1]; [13],50.0%
same,CARs,[1]; [13],16.1 + 0.5
same,LEARNERS (%),[1]; [14],50.0%
same,CARs,[1]; [14],17.6 + 0.5
same,LEARNERS (%),[1]; [15],75.0%
same,CARs,[1]; [15],17.2 + 0.6
same,effect on number of conditioned responses and percentage of learners (in words),[1],caused similar effects on the elderly animals only
same,LATENCY (seconds),[2]; [10],(12) 34.8 seconds
same,LATENCY (seconds),[2]; [11],(12) 50.7* seconds
same,LATENCY (seconds),[2]; [12],(12) 65.0* seconds
same,LATENCY (seconds),[2]; [13],(12) 97.5* seconds
same,LATENCY (seconds),[2]; [14],(12) 110.2* seconds
same,LATENCY (seconds),[2]; [15],(12) 186.0* seconds
same,effect on acquirement of avoidance responses (in words),[2],proved to be effective only on the elderly animals
same,DURATION OF STILLNESS,[3]; 1.8 mg/kg orally once a day during 20 days,301.0 + 31.4*
same,DURATION OF STILLNESS,[3]; 3.6 mg/kg orally once a day during 20 days,291.7 + 32.7*
same,DURATION OF STILLNESS,[3]; 7.2 mg/kg orally once a day during 20 days,265.8 + 24.7*
same,effect on stillness (in words),[3],showed a dose-related reduction in the stillness of the elderly rats
